In brackets after ≈: the same amount, converted by molar mass. Where two headings read alike, the source gives them in different places.
Legend:
Type in all cases: cell-based, Escherichia coli
K-12 (empty pCA24N) = test: MIC of strains harboring ASKA plasmids; details: 0.1 mM IPTG; for MIC, K-12 (empty pCA24N), Chlor +: 25 μg/mL chloramphenicol selection; for MIC, K-12 (empty pCA24N), Chlor −: no plasmid selection; for MIC: K-12 empty pCA24N
EKO-35 yjfC (pCA24N) = test: MIC of strains harboring ASKA plasmids; details: 0.1 mM IPTG; for MIC, EKO-35 yjfC (pCA24N), Chlor +: 4 μg/mL chloramphenicol selection; for MIC, EKO-35 yjfC (pCA24N), Chlor −: no plasmid selection; for MIC: EKO-35 yjfC
EKO-35 (empty pCA24N) = test: microbe, parasite or virus in culture; details: for MIC, EKO-35 (empty pCA24N), Chlor +: 4 μg/mL chloramphenicol selection; for MIC, EKO-35 (empty pCA24N), Chlor −: no plasmid selection
ΔtolC (empty pCA24N) = test: microbe, parasite or virus in culture; details: 0.1 mM IPTG; for MIC, ΔtolC (empty pCA24N), Chlor −: no plasmid selection; for MIC, ΔtolC (empty pCA24N), Chlor +: with chloramphenicol plasmid selection; for MIC: ΔtolC empty pCA24N
EKO-35 wcaC (pCA24N) = test: MIC of strains harboring ASKA plasmids; details: 0.1 mM IPTG; for MIC, EKO-35 wcaC (pCA24N), Chlor +: 4 μg/mL chloramphenicol selection; for MIC, EKO-35 wcaC (pCA24N), Chlor −: no plasmid selection; for MIC: EKO-35 wcaC
[1] = Escherichia coli, Chlor −, read-out: MIC

Compound	MIC, K-12 (empty pCA24N), Chlor + (K-12 (empty pCA24N)) [μg/mL]	MIC, K-12 (empty pCA24N), Chlor − (K-12 (empty pCA24N)) [μg/mL]	MIC, EKO-35 yjfC (pCA24N), Chlor + (EKO-35 yjfC (pCA24N)) [μg/mL]	MIC, EKO-35 yjfC (pCA24N), Chlor − (EKO-35 yjfC (pCA24N)) [μg/mL]	MIC, EKO-35 (empty pCA24N), Chlor + (EKO-35 (empty pCA24N); 0.1 mM IPTG) [μg/mL]	MIC, EKO-35 (empty pCA24N), Chlor − (EKO-35 (empty pCA24N); 0.1 mM IPTG) [μg/mL]	MIC, ΔtolC (empty pCA24N), Chlor − (ΔtolC (empty pCA24N)) [μg/mL]	MIC, ΔtolC (empty pCA24N), Chlor + (ΔtolC (empty pCA24N)) [μg/mL]	MIC, EKO-35 wcaC (pCA24N), Chlor + (EKO-35 wcaC (pCA24N)) [μg/mL]	MIC, EKO-35 wcaC (pCA24N), Chlor − (EKO-35 wcaC (pCA24N)) [μg/mL]	MIC (EKO-35 yjfC (pCA24N); Chlor + (4 μg/mL)) [µg/mL]	MIC (EKO-35 wcaC (pCA24N); Chlor + (4 μg/mL)) [µg/mL]	other results
N#Cc1ccc(-c2c(NC(=O)C(Cl)Cl)oc(-c3cccs3)c2C#N)cc1 [compound 2]	>5	>5	>5	>5	>5	>5	1.25	1.25	>5	>5	–	–	–
Cn1cc(Br)c(-c2cccc(NC(=O)Nc3ccc(OC(F)(F)F)cc3)c2)n1 [compound 14]	>5	>5	>5	>5	>5	>5	1.25	1.25	>5	>5	–	–	–
O=C(Nc1ccccc1C(=O)Nc1nnc(C(F)(F)F)s1)c1ccccc1Cl [compound 19]	>5	>5	>5	>5	>5	>5	2.5	2.5	>5	>5	–	–	–
COc1cc(Cc2cnc(N)nc2N)cc(OC)c1OC [trimethoprim]	–	–	–	–	–	–	–	–	–	–	0.391	0.781	MIC (K-12 (empty pCA24N); Escherichia coli, Chlor + (25 μg/mL chloramphenicol), read-out: MIC): 0.781 µg/mL; MIC (K-12 (empty pCA24N); [1]): 0.781 µg/mL; MIC (EKO-35 (empty pCA24N); Escherichia coli): 0.391 µg/mL (≈ 1.35 µM); MIC (ΔtolC (empty pCA24N); Escherichia coli, Chlor +): 1.56 µg/mL (≈ 5.37 µM); MIC (ΔtolC (empty pCA24N); Escherichia coli, Chlor −): 0.195 µg/mL (≈ 0.672 µM); MIC (EKO-35 wcaC (pCA24N); [1]): 0.781 µg/mL
benzalkonium chloride	–	–	–	–	–	–	–	–	–	–	0.781	0.391	MIC (K-12 (empty pCA24N); Chlor + (25 μg/mL chloramphenicol)): 25 µg/mL; MIC (K-12 (empty pCA24N); Chlor −): 25 µg/mL; MIC (EKO-35 yjfC (pCA24N); Chlor −): 0.781 µg/mL; MIC (EKO-35 (empty pCA24N); EKO-35 empty pCA24N, Chlor + (4 μg/mL chloramphenicol), 0.1 mM IPTG): 0.781 µg/mL; MIC (EKO-35 (empty pCA24N); EKO-35 empty pCA24N, Chlor −, 0.1 mM IPTG): 0.781 µg/mL; MIC (ΔtolC (empty pCA24N); Chlor +): 0.781 µg/mL; MIC (ΔtolC (empty pCA24N); Chlor −): 1.56 µg/mL; MIC (EKO-35 wcaC (pCA24N); Chlor −): 0.781 µg/mL

— patent publication US20230407243A1, “GENETIC PLATFORM TO INVESTIGATE THE FUNCTIONS OF BACTERIAL DRUG EFFLUX PUMPS” (priority 2022, published 2023)
